Assay results reported in paper PMC4579598 (2015).

Experiments:
[1] = system: myc2345 (DNA, G4) TGAGGGTGGGGAGGGTGGGGAA; assay: displacement of DAOTA-M2 followed by fluorescence lifetime (FLIM); details: 100 mM K+; 10 mM lithium cacodylate pH 7.3; DAOTA-M2 displaced, duplex DNA present
[2] = system: myc2345 (DNA, G4) TGAGGGTGGGGAGGGTGGGGAA; assay: fluorescence emission titration; details: 100 mM K+; 10 mM lithium cacodylate pH 7.3, 2 μM compound; per binding motif; log Ka 5.7-6.1 over all DNAs
[3] = system: TBA (DNA, G4) GGTTGGTGTGGTTGG; assay: fluorescence emission titration; details: 100 mM K+; 10 mM lithium cacodylate pH 7.3, 2 μM compound; log Ka 5.7-6.1 over all DNAs
[4] = system: ds17 (DNA, duplex) CCAGTTCGTAGTAACCC/GGGTTACTACGAACTGG; assay: fluorescence emission titration; details: 100 mM K+; 10 mM lithium cacodylate pH 7.3, 2 μM compound; per binding motif; log Ka 5.7-6.1 over all DNAs
[5] = system: PDGF-A (DNA, G4) GGAGGCGGGGGGGGGGGGGCGGGGGCGGGGGCGGGGGAGGGGCGCGGC; assay: fluorescence emission titration; details: 100 mM K+ (DNA annealed in 25 mM K+); 10 mM lithium cacodylate pH 7.3, 2 μM compound; per binding motif; log Ka 5.7-6.1 over all DNAs
[6] = system: ss17 (DNA, single strand) CCAGTTCGTAGTAACCC; assay: fluorescence emission titration; details: 100 mM K+; 10 mM lithium cacodylate pH 7.3, 2 μM compound; per five-base motif; log Ka 5.7-6.1 over all DNAs

binding [1]	binding [2]	binding [3]	binding [4]	Ka [5]	binding [6]	Compound
yes	–	–	–	–	–	NCCOc1cc(C(=O)Nc2cc(OCCN)c3ccccc3n2)nc(C(=O)Nc2cc(OCCN)c3ccccc3n2)c1
–	yes	yes	yes	761000 M⁻¹	yes	c1cc2oc3cccc4c3[c+]3c2c(c1)n(CCN1CCOCC1)c1cccc(c13)n4CCN1CCOCC1
